Reference: article PMC5392334, “Discovery and characterization of a novel irreversible EGFR mutants selective and potent kinase inhibitor CHMFL-EGFR-26 with a distinct binding mode” (Oncotarget, 2017)

How the values were obtained:
PFCDPK1(P.falciparum) = target: T1, PFCDPK1(P.falciparum) (Plasmodium falciparum, UniProt P62344); experiment: KinomeScan; assay type: binding; settings: read-out: % control
T1 construct: purchased DiscoveRx KINOMEscan

CAMKK1 = target: T2, CAMKK1 (Homo sapiens, UniProt Q8N5S9); experiment: KinomeScan; assay type: binding; settings: read-out: % control
T2 construct: purchased DiscoveRx KINOMEscan

OSR1 = target: T3, OSR1 (Homo sapiens, UniProt O95747); experiment: KinomeScan; assay type: binding; settings: read-out: % control
T3 construct: purchased DiscoveRx KINOMEscan

PRKCD = target: T4, PRKCD (Homo sapiens, UniProt Q05655); experiment: KinomeScan; assay type: binding; settings: read-out: % control
T4 construct: purchased DiscoveRx KINOMEscan

PRKG1 = target: T5, PRKG1 (Homo sapiens, UniProt Q13976); experiment: KinomeScan; assay type: binding; settings: read-out: % control
T5 construct: purchased DiscoveRx KINOMEscan

[1] = target: T6, RSK1(Kin.Dom.1-N-terminal) (Homo sapiens, UniProt Q15418); experiment: KinomeScan; assay type: binding; settings: read-out: % control
T6 construct: RSK1(Kin.Dom.1-N-terminal); purchased DiscoveRx KINOMEscan

HUNK = target: T7, HUNK (Homo sapiens, UniProt P57058); experiment: KinomeScan; assay type: binding; settings: read-out: % control
T7 construct: purchased DiscoveRx KINOMEscan

AURKC = target: T8, AURKC (Homo sapiens, UniProt Q9UQB9); experiment: KinomeScan; assay type: binding; settings: read-out: % control
T8 construct: purchased DiscoveRx KINOMEscan

NEK11 = target: T9, NEK11 (Homo sapiens, UniProt Q8NG66); experiment: KinomeScan; assay type: binding; settings: read-out: % control
T9 construct: purchased DiscoveRx KINOMEscan

TYRO3 = target: T10, TYRO3 (Homo sapiens, UniProt Q06418); experiment: KinomeScan; assay type: binding; settings: read-out: % control
T10 construct: purchased DiscoveRx KINOMEscan

DMPK = target: T11, DMPK (Homo sapiens, UniProt Q09013); experiment: KinomeScan; assay type: binding; settings: read-out: % control
T11 construct: purchased DiscoveRx KINOMEscan

DDR2 = target: T12, DDR2 (Homo sapiens, UniProt Q16832); experiment: KinomeScan; assay type: binding; settings: read-out: % control
T12 construct: purchased DiscoveRx KINOMEscan

GAK = target: T13, GAK (Homo sapiens, UniProt O14976); experiment: KinomeScan; assay type: binding; settings: read-out: % control
T13 construct: purchased DiscoveRx KINOMEscan

MAP3K3 = target: T14, MAP3K3 (Homo sapiens, UniProt Q99759); experiment: KinomeScan; assay type: binding; settings: read-out: % control
T14 construct: purchased DiscoveRx KINOMEscan

PHKG2 = target: T15, PHKG2 (Homo sapiens, UniProt P15735); experiment: KinomeScan; assay type: binding; settings: read-out: % control
T15 construct: purchased DiscoveRx KINOMEscan

H1975 (EGFRL858R/T790M) = experiment: Anti-proliferation, NSCLC cell lines (CellTiter-Glo); assay type: cell-based, human
Protocol: The human cancer cell lines H1975, HCC827, H2122, CHO, CHL and H1355 were purchased from the American Type Culture Collection (ATCC) (Manassas, VA, USA). PC9 cell line was purchased from the Sigma-Aldrich (St. Louis, MO, USA). A549, H3255 were purchased from Cobioer Biosciences CO., LTD (Nanjing, China). […] A549 and H1355 were cultured in F-12K Nutrient Mixture (kaighn's Modification) (Gibco, USA) with 10% FBS and supplemented with 2% L-glutamine and 1% pen/strep. H3255 was cultured in BEGM media (LONZA, USA) with 10% FBS and supplemented with 2% L-glutamine and 1% pen/strep.

LIMK1 = target: T16, LIMK1 (Homo sapiens, UniProt P53667); experiment: KinomeScan; assay type: binding; settings: read-out: % control
T16 construct: purchased DiscoveRx KINOMEscan

WNK3 = target: T17, WNK3 (Homo sapiens, UniProt Q9BYP7); experiment: KinomeScan; assay type: binding; settings: read-out: % control
T17 construct: purchased DiscoveRx KINOMEscan

PDGFRA = target: T18, PDGFRA (Homo sapiens, UniProt P16234); experiment: KinomeScan; assay type: binding; settings: read-out: % control
T18 construct: purchased DiscoveRx KINOMEscan

[2] = system: NSCLC cell lines (H1975, HCC827, PC9, H3255; EGFR wt lines); experiment: Apoptosis effect examination (Caspase-3 and PARP cleavage); assay type: cell-based, human
Description: We then examined CHMFL-EGFR-26's effect on cell cycle progression and apoptosis.
Cells were then washed in PBS and lysed in cell lysis buffer. PARP, Caspase-3, GAPDH antibodies were used for immunoblotting.

PAK6 = target: T19, PAK6 (Homo sapiens, UniProt Q9NQU5); experiment: KinomeScan; assay type: binding; settings: read-out: % control
T19 construct: purchased DiscoveRx KINOMEscan

BaF3-TEL-EGFR = experiment: Anti-proliferation, BaF3 isogenic cell lines (CellTiter-Glo); assay type: cell-based; settings: Mus musculus, 72 hours, triplet testing
PKN1 = target: T20, PKN1 (Homo sapiens, UniProt Q16512); experiment: KinomeScan; assay type: binding; settings: read-out: % control
T20 construct: purchased DiscoveRx KINOMEscan

FLT3(K663Q) = target: T21, FLT3(K663Q) (Homo sapiens, UniProt P36888, K663Q); experiment: KinomeScan; assay type: binding; settings: read-out: % control
T21 construct: purchased DiscoveRx KINOMEscan

TGFBR2 = target: T22, TGFBR2 (Homo sapiens, UniProt P37173); experiment: KinomeScan; assay type: binding; settings: read-out: % control
T22 construct: purchased DiscoveRx KINOMEscan

KIT(V559D) = target: T23, KIT(V559D) (Homo sapiens, UniProt P10721, V559D); experiment: KinomeScan; assay type: binding; settings: read-out: % control
T23 construct: purchased DiscoveRx KINOMEscan

[3] = system: phosphorylation of STAT3 in HCC827 cells; experiment: Signaling pathway examination (immunoblotting); assay type: cell-based; settings: Homo sapiens, 4 hours
Description: We next examined the effects of CHMFL-EGFR-26 on EGFR mediated signaling pathways in NSCLC cell lines with different EGFR mutants. […] As expected, in the EGFR wt expressing NCSCL cell lines A549 and H1355, only autophosphorylation of EGFR was affected and none of the downstream mediators was inhibited.
Cells were then collected and lysed. Phospho-EGF Receptor, Phospho-EGF Receptor (Tyr1068), Stat3, Phospho-Stat3 (Tyr705), AKT, Phospho-AKT (Ser473), Phospho-AKT (Thr308), p44/42 MAPK (Erk1/2), Phospho-p44/42 MAPK (Erk1/2) (Thr202/ Tyr204), p70 S6 Kinase, Phospho-p70 S6 Kinase (Thr389), eIF4E, Phospho-eIF4E (Ser209), 4E-BP1, Phospho-4E-BP1 (Thr37/46) antibody (Cell Signaling Technology) were used for immunoblotting.

PRP4 = target: T24, PRP4 (Homo sapiens, UniProt Q13523); experiment: KinomeScan; assay type: binding; settings: read-out: % control
T24 construct: purchased DiscoveRx KINOMEscan

PKN2 = target: T25, PKN2 (Homo sapiens, UniProt Q16513); experiment: KinomeScan; assay type: binding; settings: read-out: % control
T25 construct: purchased DiscoveRx KINOMEscan

JNK1 = target: T26, JNK1 (Homo sapiens, UniProt P45983); experiment: KinomeScan; assay type: binding; settings: read-out: % control
T26 construct: purchased DiscoveRx KINOMEscan

[4] = target: T27, JAK2(JH1domain-catalytic) (Homo sapiens, UniProt O60674); experiment: KinomeScan; assay type: binding; settings: read-out: % control
T27 construct: JAK2(JH1domain-catalytic); purchased DiscoveRx KINOMEscan

T20 sequence (Q16512 whole entry): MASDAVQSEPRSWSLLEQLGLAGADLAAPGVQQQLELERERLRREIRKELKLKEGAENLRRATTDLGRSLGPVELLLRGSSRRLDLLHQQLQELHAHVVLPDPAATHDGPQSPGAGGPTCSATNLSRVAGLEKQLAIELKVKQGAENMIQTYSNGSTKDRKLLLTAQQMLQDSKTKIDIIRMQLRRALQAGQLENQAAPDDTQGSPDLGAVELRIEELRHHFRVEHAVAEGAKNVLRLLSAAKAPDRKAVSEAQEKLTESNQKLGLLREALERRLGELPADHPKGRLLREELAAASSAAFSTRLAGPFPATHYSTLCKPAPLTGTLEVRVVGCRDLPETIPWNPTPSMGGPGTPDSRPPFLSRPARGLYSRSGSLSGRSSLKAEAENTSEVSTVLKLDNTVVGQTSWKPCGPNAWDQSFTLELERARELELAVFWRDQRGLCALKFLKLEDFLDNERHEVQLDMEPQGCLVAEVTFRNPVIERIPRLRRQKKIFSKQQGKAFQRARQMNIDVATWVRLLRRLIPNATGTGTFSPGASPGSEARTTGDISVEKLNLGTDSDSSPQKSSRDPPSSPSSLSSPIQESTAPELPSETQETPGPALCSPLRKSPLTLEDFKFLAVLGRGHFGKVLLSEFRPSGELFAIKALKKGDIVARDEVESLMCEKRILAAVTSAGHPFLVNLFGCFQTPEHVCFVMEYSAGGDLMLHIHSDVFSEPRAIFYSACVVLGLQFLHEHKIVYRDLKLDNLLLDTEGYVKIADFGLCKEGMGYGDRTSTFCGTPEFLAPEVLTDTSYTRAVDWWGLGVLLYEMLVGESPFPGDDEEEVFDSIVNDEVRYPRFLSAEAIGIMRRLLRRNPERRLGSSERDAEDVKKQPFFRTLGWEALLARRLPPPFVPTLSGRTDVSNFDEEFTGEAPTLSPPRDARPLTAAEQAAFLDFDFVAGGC
T17 sequence (Q9BYP7 whole entry): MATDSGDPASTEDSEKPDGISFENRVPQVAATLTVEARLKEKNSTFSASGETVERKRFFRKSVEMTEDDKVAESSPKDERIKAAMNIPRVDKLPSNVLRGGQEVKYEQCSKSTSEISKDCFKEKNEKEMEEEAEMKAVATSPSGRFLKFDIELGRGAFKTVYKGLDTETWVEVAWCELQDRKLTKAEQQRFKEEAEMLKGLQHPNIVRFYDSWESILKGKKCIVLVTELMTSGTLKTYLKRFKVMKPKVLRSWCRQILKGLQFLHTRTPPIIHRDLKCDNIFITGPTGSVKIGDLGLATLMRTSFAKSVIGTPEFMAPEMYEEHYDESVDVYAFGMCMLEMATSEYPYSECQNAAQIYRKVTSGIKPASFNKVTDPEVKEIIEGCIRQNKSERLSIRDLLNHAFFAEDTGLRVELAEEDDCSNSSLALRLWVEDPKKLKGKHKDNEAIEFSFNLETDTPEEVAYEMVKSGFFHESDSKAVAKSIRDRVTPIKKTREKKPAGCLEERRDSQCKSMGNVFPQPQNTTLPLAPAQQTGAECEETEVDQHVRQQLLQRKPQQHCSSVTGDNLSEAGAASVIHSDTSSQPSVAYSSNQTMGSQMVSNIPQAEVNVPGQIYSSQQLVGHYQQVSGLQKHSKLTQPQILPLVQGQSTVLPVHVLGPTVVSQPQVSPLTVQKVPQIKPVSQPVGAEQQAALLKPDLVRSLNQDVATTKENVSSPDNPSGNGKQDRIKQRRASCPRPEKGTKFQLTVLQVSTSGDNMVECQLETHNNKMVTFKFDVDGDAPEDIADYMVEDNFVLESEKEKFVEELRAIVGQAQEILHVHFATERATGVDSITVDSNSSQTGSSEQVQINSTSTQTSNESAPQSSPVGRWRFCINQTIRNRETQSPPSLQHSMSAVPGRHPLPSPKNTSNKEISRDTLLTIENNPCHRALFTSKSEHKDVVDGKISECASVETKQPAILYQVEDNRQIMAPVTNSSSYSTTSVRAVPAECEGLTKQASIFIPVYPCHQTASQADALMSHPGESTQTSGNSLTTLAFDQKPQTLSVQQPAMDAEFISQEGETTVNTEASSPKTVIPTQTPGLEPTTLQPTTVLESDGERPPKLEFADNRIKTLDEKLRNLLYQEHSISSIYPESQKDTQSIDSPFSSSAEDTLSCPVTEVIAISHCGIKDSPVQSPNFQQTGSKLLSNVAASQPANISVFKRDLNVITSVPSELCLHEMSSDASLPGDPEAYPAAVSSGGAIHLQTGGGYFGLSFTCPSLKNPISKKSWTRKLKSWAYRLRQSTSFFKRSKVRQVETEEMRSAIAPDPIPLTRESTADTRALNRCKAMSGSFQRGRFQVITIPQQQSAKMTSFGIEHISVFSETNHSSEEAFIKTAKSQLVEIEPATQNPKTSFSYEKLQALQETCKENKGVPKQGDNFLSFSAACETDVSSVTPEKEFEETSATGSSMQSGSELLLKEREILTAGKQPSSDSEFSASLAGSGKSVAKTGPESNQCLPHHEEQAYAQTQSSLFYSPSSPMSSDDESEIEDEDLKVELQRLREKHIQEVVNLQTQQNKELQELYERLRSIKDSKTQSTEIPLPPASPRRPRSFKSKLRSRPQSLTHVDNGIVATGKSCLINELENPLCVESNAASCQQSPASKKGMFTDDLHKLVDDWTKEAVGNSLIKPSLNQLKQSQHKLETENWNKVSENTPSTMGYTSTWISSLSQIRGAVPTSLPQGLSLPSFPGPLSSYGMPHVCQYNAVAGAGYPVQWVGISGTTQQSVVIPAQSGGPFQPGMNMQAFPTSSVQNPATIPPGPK
T7 sequence (P57058 whole entry): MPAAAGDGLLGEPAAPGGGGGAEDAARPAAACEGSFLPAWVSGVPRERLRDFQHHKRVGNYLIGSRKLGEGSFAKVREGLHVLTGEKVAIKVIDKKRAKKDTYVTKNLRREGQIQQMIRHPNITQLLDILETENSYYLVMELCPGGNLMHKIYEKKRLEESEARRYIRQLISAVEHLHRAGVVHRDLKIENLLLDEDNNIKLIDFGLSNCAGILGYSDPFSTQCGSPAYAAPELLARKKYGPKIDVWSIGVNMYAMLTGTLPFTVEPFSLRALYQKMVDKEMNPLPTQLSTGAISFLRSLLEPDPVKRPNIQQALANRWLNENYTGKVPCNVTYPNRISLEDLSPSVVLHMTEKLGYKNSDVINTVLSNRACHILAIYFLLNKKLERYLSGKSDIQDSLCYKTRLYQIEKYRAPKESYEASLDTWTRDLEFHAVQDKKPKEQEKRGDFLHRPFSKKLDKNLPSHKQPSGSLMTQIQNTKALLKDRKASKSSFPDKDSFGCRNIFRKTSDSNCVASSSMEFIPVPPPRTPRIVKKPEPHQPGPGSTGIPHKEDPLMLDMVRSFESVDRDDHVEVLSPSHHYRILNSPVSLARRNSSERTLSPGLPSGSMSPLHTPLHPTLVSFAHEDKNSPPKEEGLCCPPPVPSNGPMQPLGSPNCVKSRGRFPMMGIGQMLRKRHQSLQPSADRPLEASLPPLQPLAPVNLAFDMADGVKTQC
T5 sequence (Q13976 whole entry): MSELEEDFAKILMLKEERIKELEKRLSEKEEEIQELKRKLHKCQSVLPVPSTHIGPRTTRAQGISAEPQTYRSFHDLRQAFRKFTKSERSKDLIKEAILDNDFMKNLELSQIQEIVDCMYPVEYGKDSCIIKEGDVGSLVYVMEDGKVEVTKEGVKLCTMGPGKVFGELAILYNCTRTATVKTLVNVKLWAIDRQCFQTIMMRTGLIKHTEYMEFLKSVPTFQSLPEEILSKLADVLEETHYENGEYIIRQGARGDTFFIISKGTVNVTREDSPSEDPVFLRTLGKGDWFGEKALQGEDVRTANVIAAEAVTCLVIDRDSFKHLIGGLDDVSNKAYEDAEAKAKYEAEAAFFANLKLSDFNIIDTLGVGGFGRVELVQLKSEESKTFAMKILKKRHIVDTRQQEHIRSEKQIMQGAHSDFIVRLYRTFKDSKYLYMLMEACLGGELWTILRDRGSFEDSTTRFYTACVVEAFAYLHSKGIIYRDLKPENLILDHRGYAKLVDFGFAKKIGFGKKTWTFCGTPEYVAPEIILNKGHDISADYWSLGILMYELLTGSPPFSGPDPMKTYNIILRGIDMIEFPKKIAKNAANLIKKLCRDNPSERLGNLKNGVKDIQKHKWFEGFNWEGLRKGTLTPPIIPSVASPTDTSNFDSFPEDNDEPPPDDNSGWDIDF
T1 sequence (P62344 whole entry): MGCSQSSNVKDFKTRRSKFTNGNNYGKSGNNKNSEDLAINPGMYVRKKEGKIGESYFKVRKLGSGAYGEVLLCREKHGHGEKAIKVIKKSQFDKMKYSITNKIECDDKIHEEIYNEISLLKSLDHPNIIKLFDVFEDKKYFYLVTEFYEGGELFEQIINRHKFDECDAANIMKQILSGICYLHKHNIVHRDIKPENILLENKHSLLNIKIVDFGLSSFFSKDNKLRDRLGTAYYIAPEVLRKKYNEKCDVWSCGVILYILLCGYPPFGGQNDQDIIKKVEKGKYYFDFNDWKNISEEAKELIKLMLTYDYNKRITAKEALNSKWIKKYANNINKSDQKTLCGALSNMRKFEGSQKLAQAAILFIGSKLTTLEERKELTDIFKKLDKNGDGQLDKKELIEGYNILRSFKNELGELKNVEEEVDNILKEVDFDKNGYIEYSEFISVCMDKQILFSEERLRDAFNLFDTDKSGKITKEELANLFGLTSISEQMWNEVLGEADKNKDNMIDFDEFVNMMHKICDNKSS
T6 sequence (Q15418 1-391 limits assumed): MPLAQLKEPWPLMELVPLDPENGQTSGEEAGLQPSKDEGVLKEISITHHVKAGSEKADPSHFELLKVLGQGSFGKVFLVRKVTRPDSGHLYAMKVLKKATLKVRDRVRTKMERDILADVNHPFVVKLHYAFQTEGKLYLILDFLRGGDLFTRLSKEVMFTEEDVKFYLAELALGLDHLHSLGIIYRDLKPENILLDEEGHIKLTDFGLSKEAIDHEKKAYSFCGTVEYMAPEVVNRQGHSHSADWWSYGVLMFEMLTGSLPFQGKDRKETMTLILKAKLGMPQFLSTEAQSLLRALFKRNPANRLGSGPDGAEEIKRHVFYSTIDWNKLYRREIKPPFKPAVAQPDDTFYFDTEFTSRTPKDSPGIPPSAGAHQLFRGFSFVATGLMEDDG

## C=CC(=O)N1CCC[C@@H](n2nc(-c3ccc(OCc4cccc(C)n4)c(Cl)c3)c3c(N)ncnc32)C1 [CHMFL-EGFR-26]
PFCDPK1(P.falciparum)
  remaining binding at 1 µM: 54%
CAMKK1
  remaining binding at 1 µM: 88%
OSR1
  remaining binding at 1 µM: 95%
PRKCD
  remaining binding at 1 µM: 100%
PRKG1
  remaining binding at 1 µM: 14%
[1]
  remaining binding at 1 µM: 97%
HUNK
  remaining binding at 1 µM: 72%
AURKC
  remaining binding at 1 µM: 87%
NEK11
  remaining binding at 1 µM: 100%
TYRO3
  remaining binding at 1 µM: 53%
DMPK
  remaining binding at 1 µM: 66%
DDR2
  remaining binding at 1 µM: 90%
GAK
  remaining binding at 1 µM: 72%
MAP3K3
  remaining binding at 1 µM: 67%
PHKG2
  remaining binding at 1 µM: 100%
H1975 (EGFRL858R/T790M); H1975 GI50
  fold more potent than AZD9291: about 170 fold
H1975 (EGFRL858R/T790M); Homo sapiens, NCI-H1975, H1975 (EGFRL858R/T790M), 72 hours, triplet testing
  GI50: < 0.3 nM
LIMK1
  remaining binding at 1 µM: 99%
WNK3
  remaining binding at 1 µM: 100%
PDGFRA
  remaining binding at 1 µM: 100%
[2]; EGFR wt NSCLC cell lines, 72hrs
  Caspase-3 and PARP cleavage (apoptosis): no cleaved Caspase-3 and PARP detected
[2]; H1975, HCC827, PC9 and H3255, 30nM, 24hrs
  Caspase-3 and PARP cleavage (apoptosis): sufficient to induce Caspase-3 and PARP cleavage
PAK6
  remaining binding at 1 µM: 74%
BaF3-TEL-EGFR
  GI50: 5400 nM
PKN1
  remaining binding at 1 µM: 99%
FLT3(K663Q)
  remaining binding at 1 µM: 97%
TGFBR2
  remaining binding at 1 µM: 100%
KIT(V559D)
  remaining binding at 1 µM: 100%
[3]
  EC50: < 10 nM
PRP4
  remaining binding at 1 µM: 78%
PKN2
  remaining binding at 1 µM: 53%
JNK1
  remaining binding at 1 µM: 76%
[4]
  remaining binding at 1 µM: 95%
